# Like-named read-outs stand apart in the source and are kept apart here.
# Tested on: HBV viral load (viral production from HepAD38 cells)
# Assay: Activity of test compounds on viral production from HepAD38 cells (viral load by qPCR of HBV core sequence)
# Type: cell-based
# Settings: viral load lowering, 5 days, qPCR of supernatant, read-out: VL HepAD38 EC50 range
# Procedure: Assay Measuring Activity of Test Compounds on Viral Production from HepAD38 Cells
# HepAD38 cells grown in a T-150 flask (Corning, cat #: 430825) with Growth Medium (DMEM/F12 (1:1) (Hyclone, cat #: SH30023.02), 1× Pen/Strep (Invitrogen, cat #: 15140-122), 10% FBS (Tissue Culture Biologics, cat #: 101), 250 μg/mL G418 (Alfa Aesar, cat #: J62671), 1 μg/mL Tetracycline (Teknova, cat #: T3320)) were detached with 0.25% trypsin-EDTA (Invitrogen, cat #: 25200-056). Tetracycline-free treatment medium (15 mL DMEM/F12 (1:1) 1× Pen/step, with 2% FBS, Tet-system approved (Clontech, cat #: 631106) were then added to mix, transferred into a 50 ml conical tube (Falcon, cat #: 21008-918) and spun at 1300 rpm for 5 min. Pelleted cells were then re-suspended/washed with 50 mL of 1×DPBS (Invitrogen, cat #: 14190-136) 2 times and 50 mL treatment medium twice. HepAD38 cells were then re-suspended with 10 mL of treatment medium, syringed and counted. Wells of 96-well clear bottom TC plate (Corning, cat #: 3904) were seeded at 50,000 cells/well in 180 μL of treatment medium, and 20 μL of either 10% DMSO (Sigma, cat #: D4540) as controls or a 10× solution of test compounds in 10% DMSO in treatment media was added for a final compound concentration starting at 10 μM, and plates were incubated in 5% CO2 incubator at 37° C. for 5 days.
# Subsequently viral load production was assayed by quantitative PCR (qPCR) of the HBV core sequence. PCR reaction mixture containing forward primers HBV-f 5′-CTGTGCCTTGGGTGGCITT-3′ (IDT DNA), Reverse primers HBV-r 5′-[…]-3′ (IDT DNA), Fluorescent TaqMan™ Probes HBV-probe 5′-FAM/AGCTCCAAA/ZENMITCTITATAAGGGTCGATGTC/3IABkFQ-3′ (IDT DNA), 10 μL/well of PerfeCTa® qPCR ToughMix® (Quanta Biosciences, Cat #: 95114-05K), and 6 μL/well of DEPC water (Alfa Aesar, cat #: J62087) was prepared. Four μL of supernatant was added to 16 μL of the reaction mixture in a qPCR plate (Applied Biosytems, Cat #: 4309849), sealed with a film (Applied Biosystems, Cat #: 4311971), centrifuged for a few seconds, and subsequently run on an Applied Biosystems VIIA7. The PCR mixture was incubated at 45° C. for 5 min, then 95° C. for 10 min, followed by 40 cycles of 10 seconds at 95° C. and 20 seconds at 60° C. Viral load was quantified against known HBV DNA standards by using ViiA™ 7 Software. Viral load in the supernatant from wells with treated cells were compared against viral load in supernatant from DMSO control wells (3 per plate). Cell viability assay was performed with CellTiter-Glo Luminescent Cell Viability Assay (Promega, cat #: G7573) with modification. Mixed appropriate amount of CellTiter-Glo (CTG) 1×DPBS in a 1:1 ratio, added 100 uL of the mixture to each well followed completely removal of all supernatant in each well without touching cell surface. Incubated the plate at room temperature for 10 min on an orbital shaker, and then read the plate with a plate reader (TECAN M1000 or Envision). EC50 or CC50 values were calculated through curve-fitting of the four-parameter nonlinear-logistic-regression model (GraphPad Prism or Dotmatics). CC50 values were all >10 μM.
# [1] = Hepatitis B virus, HePAD38, 120 h
SMILES,EC50 [1] [nM],EC50 [nM]
"Cn1cnc(C2CC3CC(O)(c4cc(Cl)nn4C)CC3C2)c1C(=O)Nc1ccc(F)c(Cl)c1 (single isomer, unassigned) [Example 73, 4-(5-(3-Chloro-1-methyl-1H-pyrazol-5-yl)-5-hydroxyoctahydropentalen-2-yl)-N-(3-chloro-4-fluorophenyl)-1-methyl-1H-imidazole-5-carboxamide]",< 10,
"Cn1cnc(C2CC3CC(O)(c4cc(C(C)(C)C)nn4C)CC3C2)c1C(=O)Nc1ccc(F)c(Cl)c1 (single isomer, unassigned) [Example 74]",< 10,
"[2H]C([2H])([2H])C1(O)CC2CC(c3ncn(C)c3C(=O)Nc3ccc(F)c(Cl)c3)CC2C1 (single isomer, unassigned) [Example 80, N-(3-Chloro-4-fluorophenyl)-4(5-hydroxy-5-(methyl-d3)octahydropentalen-2-yl)-1-methyl-1H-imidazole-5-carboxamide]",50 to 500,
"Cn1cc(C2(O)CC3CC(c4ncn(C)c4C(=O)Nc4ccc(F)c(Cl)c4)CC3C2)c(C(F)(F)F)n1 (single isomer, unassigned) [Example 114, N-(3-Chloro-4-fluorophenyl)-4-(5-hydroxy-5-(1-methyl-3-(trifluoromethyl)-1H-pyrazol-4-yl)octahydropentalen-2-yl)-1-methyl-1H-imidazole-5-carboxamide]",< 10,
"Cn1cnc(C2CC3CC(O)(Cn4cccn4)CC3C2)c1C(=O)Nc1ccc(F)c(Cl)c1 (single isomer, unassigned) [Example 128, 4-(5-((1H-pyrazol-1-yl)methyl)-5-hydroxyoctahydropentalen-2-yl)-N-(3-chloro-4-fluorophenyl)-1-methyl-1H-imidazole-5-carboxamide]",< 10,
"Cn1cnc(C2CC3CC(O)(Cn4cccn4)CC3C2)c1C(=O)Nc1ccc(F)c(Cl)c1 (single isomer, unassigned) [Example 129, 4-(5-((1H-pyrazol-1-yl)methyl)-5-hydroxyoctahydropentalen-2-yl)-N-(3-chloro-4-fluorophenyl)-1-methyl-1H-imidazole-5-carboxamide]",,10 to 50
"CC(O)c1nn(C)cc1C1(O)CC2CC(c3ncn(C)c3C(=O)Nc3ccc(F)c(Cl)c3)CC2C1 (single isomer, unassigned) [Example 188, N-(3-Chloro-4-fluorophenyl)-4-(5-hydroxy-5-(3-(1-hydroxyethyl)-1-methyl-1H-pyrazol-4-yl)octahydropentalen-2-yl)-1-methyl-1H-imidazole-5-carboxamide]",< 10,
"CC(O)c1nn(C)cc1C1(O)CC2CC(c3ncn(C)c3C(=O)Nc3ccc(F)c(Cl)c3)CC2C1 (single isomer, unassigned) [Example 189, N-(3-Chloro-4-fluorophenyl)-4-(5-hydroxy-5-(3-(1-hydroxyethyl)-1-methyl-1H-pyrazol-4-yl)octahydropentalen-2-yl)-1-methyl-1H-imidazole-5-carboxamide]",,< 10
"Cn1cnc(C2CC3CC(O)(c4cc(OCC(O)CO)nn4C)CC3C2)c1C(=O)Nc1ccc(F)c(Cl)c1 (single isomer, unassigned) [Example 205, N-(3-Chloro-4-fluorophenyl)-4-(5-(3-(2,3-dihydroxypropoxy)-1-methyl-1H-pyrazol-5-yl)-5-hydroxyoctahydropentalen-2-yl)-1-methyl-1H-imidazole-5-carboxamide]",< 10,
"Cn1cnc(C2CC3CC(O)(c4cc(OCC(O)CO)nn4C)CC3C2)c1C(=O)Nc1ccc(F)c(Cl)c1 (single isomer, unassigned) [Example 206, N-(3-Chloro-4-fluorophenyl)-4-(5-(3-(2,3-dihydroxypropoxy)-1-methyl-1H-pyrazol-5-yl)-5-hydroxyoctahydropentalen-2-yl)-1-methyl-1H-imidazole-5-carboxamide]",,< 10
"CC(O)COc1cc(C2(O)CC3CC(c4ncn(C)c4C(=O)Nc4ccc(F)c(Cl)c4)CC3C2)n(C)n1 (single isomer, unassigned) [Example 209, N-(3-Chloro-4-fluorophenyl)-4-(5-hydroxy-5-(3-(2-hydroxypropoxy)-1-methyl-1H-pyrazol-5-yl)octahydropentalen-2-yl)-1-methyl-1H-imidazole-5-carboxamide]",< 10,
"CC(O)COc1cc(C2(O)CC3CC(c4ncn(C)c4C(=O)Nc4ccc(F)c(Cl)c4)CC3C2)n(C)n1 (single isomer, unassigned) [Example 210, N-(3-Chloro-4-fluorophenyl)-4-(5-hydroxy-5-(3-(2-hydroxypropoxy)-1-methyl-1H-pyrazol-5-yl)octahydropentalen-2-yl)-1-methyl-1H-imidazole-5-carboxamide]",,< 10
"Cn1cnc(C2CC3CC(O)(c4cccc(F)c4)CC3C2)c1C(=O)Nc1ccc(F)c(Cl)c1 (stereo not shown) [Example 6, N-(3-Chloro-4-fluorophenyl)-4-(5-(3-fluorophenyl)-5-hydroxyoctahydropentalen-2-yl)-1-methyl-1H-imidazole-5-carboxamide]",< 10,
"Cn1cnc(C2CC3CC(O)(c4ccc(F)cc4)CC3C2)c1C(=O)Nc1ccc(F)c(Cl)c1 (stereo not shown) [Example 7, N-(3-Chloro-4-fluorophenyl)-4-(5-(4-fluorophenyl)-5-hydroxyoctahydropentalen-2-yl)-1-methyl-1H-imidazole-5-carboxamide]",< 10,
"Cn1cnc(C2CC3CC(O)(c4ccccc4)CC3C2)c1C(=O)Nc1ccc(F)c(Cl)c1 (stereo not shown) [Example 8, N-(3-Chloro-4-fluorophenyl)-4-(5-hydroxy-5-phenyloctahydropentalen-2-yl)-1-methyl-1H-imidazole-5-carboxamide]",< 10,
"Cn1cnc(C2CC3CC(O)(c4ccccn4)CC3C2)c1C(=O)Nc1ccc(F)c(Cl)c1 (stereo not shown) [Example 9, N-(3-Chloro-4-fluorophenyl)-4-(5-hydroxy-5-(pyridin-2-yl)octahydropentalen-2-yl)-1-methyl-1H-imidazole-5-carboxamide]",< 10,
"Cn1cnc(C2CC3CC(O)(c4ccnn4C)CC3C2)c1C(=O)Nc1ccc(F)c(Cl)c1 (stereo not shown) [Example 10, N-(3-chloro-4-fluorophenyl)-4-(5-hydroxy-5-(1-methyl-1H-pyrazol-5-yl)octahydropentalen-2-yl)-1-methyl-1H-imidazole-5-carboxamide]",< 10,
"Cn1cnc(C2CC3CC(O)(CS(=O)(=O)c4ccc(F)cc4)CC3C2)c1C(=O)Nc1ccc(F)c(Cl)c1 (stereo not shown) [Example 11, N-(3-Chloro-4-fluorophenyl)-4-(5-(((4-fluorophenyl)sulfonyl)methyl)-5-hydroxyoctahydropentalen-2-yl)-1-methyl-1H-imidazole-5-carboxamide]",10 to 50,
"Cn1cnc(C2CC3CC(O)(C(F)(F)F)CC3C2)c1C(=O)Nc1ccc(F)c(Cl)c1 (stereo not shown) [Example 12, N-(3-Chloro-4-fluorophenyl)-4-(5-hydroxy-5-(trifluoromethyl)octahydropentalen-2-yl)-1-methyl-1H-imidazole-5-carboxamide]",< 10,
"Cn1cnc(C2CC3CC(N)CC3C2)c1C(=O)Nc1ccc(F)c(Cl)c1 (stereo not shown) [Example 13, 4-(5-Aminooctahydropentalen-2-yl)-N-(3-chloro-4-fluorophenyl)-1-methyl-1H-imidazole-5-carboxamide]",10 to 50,
"Cn1cnc(-c2ccc(C3CCC(c4ncn(C)c4C(=O)Nc4ccc(F)c(Cl)c4)C3)cc2)c1 (stereo not shown) [Example 14, N-(3-Chloro-4-fluorophenyl)-1-methyl-4-(3-(4-(1-methyl-1H-imidazol-4-yl)phenyl)cyclopentyl)-1H-imidazole-5-carboxamide]",< 10,
"Cn1cnc(-c2ccc(C3CCC(c4ncn(C)c4C(=O)Nc4ccc(F)c(Cl)c4)C3)cc2)c1 (stereo not shown) [Example 15, N-(3-Chloro-4-fluorophenyl)-1-methyl-4-(3-(4-(1-methyl-1H-imidazol-4-yl)phenyl)cyclopentyl)-1H-imidazole-5-carboxamide]",,< 10
